# Assay results published in US20150105252A1, “SUBSTITUTED PYRAZOLES AS HERBICIDES” (E I DU PONT DE NEMOURS AND COMPANY, priority 2013, published 2015).
# How the values were obtained:
# oat, wild = experiment: Test C postemergence; assay type: in vivo, Avena fatua; settings: for Plant response rating (scale of 0 to 100 where 0 is no effect and 100 is complete control), Oat, Wild: Postemergence, 31 g ai/ha, visually evaluated after 13 to 15 days; for Oat, Wild plant response rating / Plant response rating, Oat, Wild: postemergence; for Oat, Wild plant response rating: 62 g ai/ha, scale 0 to 100
# In short: (§1)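 Seeds were sown in a loam soil–sand blend and sprayed preemergence with compounds formulated in a non-phytotoxic solvent mixture containing surfactant. Postemergence plants, grown in peat/vermiculite medium to 2–18 cm (1- to 4-leaf stage), received the same formulation. After 13 to 15 days in a greenhouse, injury was rated visually against controls (0 = no effect, 100 = complete control).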
# barnyardgrass [1] = experiment: Test A preemergence; assay type: in vivo, Echinochloa crus-galli; settings: preemergence
# In short: (§2)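 Growth medium: loam soil blended with sand. Preemergence treatment used a directed soil spray right after planting; postemergence treatment targeted seedlings at one to two leaves (2–10 cm height). Response was judged by eye relative to untreated plants about 10 days later on a 0–100 control scale.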
# sedge, umbrella = experiment: Test B flood; assay type: in vivo, Cyperus difformis; settings: 250 g ai/ha, visual rating on 0 to 100 scale (0 no effect, 100 complete control), 13 to 15 days
# In short: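 Visual ratings on a 0–100 scale, where 0 means no effect and 100 means complete control, were assigned by comparison with controls 13 to 15 days after treatment. Compounds went into paddy water over 2-leaf plants flooded to 3 cm.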
# pigweed = experiment: Test C preemergence; assay type: in vivo, Amaranthus retroflexus; settings: for Plant response rating (scale of 0 to 100), Pigweed: Preemergence; for Pigweed plant response rating / Plant response rating, Pigweed: preemergence; for Plant response rating, Pigweed: scale 0 to 100, 0 = no effect, 100 = complete control
# In short: as §1
# waterhemp = experiment: Test C preemergence; assay type: in vivo, Amaranthus rudis; settings: for Plant response rating (scale of 0 to 100), Waterhemp: Preemergence; for Waterhemp plant response rating / Plant response rating, Waterhemp: preemergence; for Plant response rating, Waterhemp: scale 0 to 100, 0 = no effect, 100 = complete control
# In short: as §1
# ryegrass, Italian [2] = experiment: Test C preemergence; assay type: in vivo, Lolium multiflorum; settings: for Plant response rating (scale of 0 to 100), Ryegrass, Italian: Preemergence; for Ryegrass, Italian plant response rating / Plant response rating, Ryegrass, Italian: preemergence; for Plant response rating, Ryegrass, Italian: scale 0 to 100, 0 = no effect, 100 = complete control
# In short: as §1
# barnyardgrass [3] = experiment: Test A postemergence; assay type: in vivo, Echinochloa crus-galli
# In short: as §2
# wheat = experiment: Test A postemergence; assay type: in vivo, Triticum aestivum
# In short: as §2
# johnsongrass = experiment: Test C postemergence; assay type: in vivo, Sorghum halepense; settings: for Plant response rating (scale of 0 to 100 where 0 is no effect and 100 is complete control), Johnsongrass: Postemergence, 31 g ai/ha, visually evaluated after 13 to 15 days; for Johnsongrass plant response rating / Plant response rating, Johnsongrass: postemergence; for Johnsongrass plant response rating: 62 g ai/ha, scale 0 to 100
# In short: as §1
# soybean = experiment: Test C preemergence; assay type: in vivo, Glycine max; settings: for Plant response rating (scale of 0 to 100), Soybean: Preemergence; for Soybean plant response rating / Plant response rating, Soybean: preemergence; for Plant response rating, Soybean: scale 0 to 100, 0 = no effect, 100 = complete control
# In short: as §1
# ryegrass, Italian [4] = experiment: Test C postemergence; assay type: in vivo, Lolium multiflorum; settings: for Plant response rating (scale of 0 to 100 where 0 is no effect and 100 is complete control), Ryegrass, Italian: Postemergence, 31 g ai/ha, visually evaluated after 13 to 15 days; for Ryegrass, Italian plant response rating / Plant response rating, Ryegrass, Italian: postemergence; for Ryegrass, Italian plant response rating: 62 g ai/ha, scale 0 to 100
# In short: as §1
# [5] = 250 g ai/ha, scale 0 to 100 (0 no effect, 100 complete control)
# [6] = 125 g ai/ha, scale 0 to 100, 0 no effect, 100 complete control
# [7] = 125 g ai/ha, visual injury, 0 to 100 scale, approx. 10 days
# [8] = 500 g ai/ha, visual injury after approx. 10 days, 0 to 100 scale (0 no effect, 100 complete control)
# [9] = 31 g ai/ha, visual rating, scale 0 to 100 (0 no effect, 100 complete control), 13 to 15 days
# [10] = 62 g ai/ha, scale 0 to 100 (0 no effect, 100 complete control), 13 to 15 days
# [11] = Postemergence, 500 g ai/ha, 0 to 100 scale (0 no effect, 100 complete control)
# [12] = postemergence, 125 g ai/ha, about 10 days, visual rating on 0 to 100 scale (0 no effect, 100 complete control)
# [13] = 125 g ai/ha, scale 0 to 100, 0 is no effect, 100 is complete control
# [14] = 250 g ai/ha, scale 0 to 100, 0 is no effect, 100 is complete control
SMILES,"Plant response rating (scale of 0 to 100 where 0 is no effect and 100 is complete control), Oat, Wild (oat, wild)","Oat, Wild plant response rating (oat, wild)","Plant response rating, Oat, Wild (oat, wild; [5])","Plant response rating, Oat, Wild (oat, wild; [6])",Barnyardgrass plant response rating (barnyardgrass [1]; [7]),Barnyardgrass plant response rating (barnyardgrass [1]; [8]),"Plant response rating, Sedge, Umbrella (sedge, umbrella)",Pigweed plant response rating (pigweed; [9]),Pigweed plant response rating (pigweed; [10]),Waterhemp plant response rating (waterhemp; [9]),Waterhemp plant response rating (waterhemp; [10]),"Ryegrass, Italian plant response rating (ryegrass, Italian [2]; [9])","Ryegrass, Italian plant response rating (ryegrass, Italian [2]; [10])",Barnyardgrass plant response rating (barnyardgrass [3]; [11]),Barnyardgrass plant response rating (barnyardgrass [3]; [12]),Wheat plant response rating (wheat; [11]),Wheat plant response rating (wheat; [12]),"Plant response rating (scale of 0 to 100 where 0 is no effect and 100 is complete control), Johnsongrass (johnsongrass)",Johnsongrass plant response rating (johnsongrass),"Plant response rating, Johnsongrass (johnsongrass; [5])",other results
CCCc1cc(C(=O)NCC(F)(F)F)nn1Cc1ccnc(OC(F)F)c1 [Compound 127],5,5,35,5,90,90,85,100,100,100,100,25,60,90,90,90,80,5,5,25,"Plant response rating (scale of 0 to 100), Pigweed (pigweed; 250 g ai/ha): 100; Plant response rating, Pigweed (pigweed; 125 g ai/ha, 13 to 15 days): 100; Plant response rating (scale of 0 to 100), Waterhemp (waterhemp; 250 g ai/ha): 100; Plant response rating, Waterhemp (waterhemp; 125 g ai/ha, 13 to 15 days): 100; Plant response rating (scale of 0 to 100), Ryegrass, Italian (ryegrass, Italian [2]; 250 g ai/ha): 80; Plant response rating, Ryegrass, Italian (ryegrass, Italian [2]; 125 g ai/ha, 13 to 15 days): 80; Plant response rating, Johnsongrass (johnsongrass; [6]): 30; Plant response rating (scale of 0 to 100), Soybean (soybean; 250 g ai/ha): 85; Soybean plant response rating (soybean; [9]): 30; Soybean plant response rating (soybean; [10]): 45; Plant response rating, Soybean (soybean; 125 g ai/ha, 13 to 15 days): 65; Plant response rating (scale of 0 to 100 where 0 is no effect and 100 is complete control), Ryegrass, Italian (ryegrass, Italian [4]): 5; Ryegrass, Italian plant response rating (ryegrass, Italian [4]): 5; Plant response rating, Ryegrass, Italian (ryegrass, Italian [4]; [5]): 40; Plant response rating, Ryegrass, Italian (ryegrass, Italian [4]; [6]): 10"
CCc1cc(C(=O)NOC(C)C)nn1Cc1ccnc(OC(F)F)c1 [Compound 126],35,15,50,20,90,100,95,100,85,90,98,15,60,100,90,90,90,5,10,25,"Plant response rating (scale of 0 to 100), Pigweed (pigweed; 250 g ai/ha): 100; Pigweed plant response rating (pigweed; [13]): 100; Plant response rating (scale of 0 to 100), Waterhemp (waterhemp; 250 g ai/ha): 100; Waterhemp plant response rating (waterhemp; [13]): 100; Plant response rating (scale of 0 to 100), Ryegrass, Italian (ryegrass, Italian [2]; 250 g ai/ha): 90; Ryegrass, Italian plant response rating (ryegrass, Italian [2]; [13]): 90; Plant response rating, Johnsongrass (johnsongrass; [6]): 20; Plant response rating (scale of 0 to 100), Soybean (soybean; 250 g ai/ha): 98; Soybean plant response rating (soybean; [9]): 25; Soybean plant response rating (soybean; [10]): 40; Soybean plant response rating (soybean; [13]): 75; Plant response rating (scale of 0 to 100 where 0 is no effect and 100 is complete control), Ryegrass, Italian (ryegrass, Italian [4]): 5; Ryegrass, Italian plant response rating (ryegrass, Italian [4]): 5; Plant response rating, Ryegrass, Italian (ryegrass, Italian [4]; [5]): 15; Plant response rating, Ryegrass, Italian (ryegrass, Italian [4]; [6]): 10"
CCCNC(=O)c1cc(OCC)n(Cc2ccnc(OC(F)F)c2)n1 [Compound 136],5,5,45,10,100,100,80,70,70,85,100,55,90,90,70,90,60,5,5,10,"Plant response rating, Pigweed (pigweed; 125 g ai/ha, 13 to 15 days): 60; Pigweed plant response rating (pigweed; [14]): 100; Plant response rating, Waterhemp (waterhemp; 125 g ai/ha, 13 to 15 days): 100; Waterhemp plant response rating (waterhemp; [14]): 100; Plant response rating, Ryegrass, Italian (ryegrass, Italian [2]; 125 g ai/ha, 13 to 15 days): 95; Ryegrass, Italian plant response rating (ryegrass, Italian [2]; [14]): 95; Plant response rating, Johnsongrass (johnsongrass; [6]): 5; Soybean plant response rating (soybean; [9]): 45; Soybean plant response rating (soybean; [10]): 75; Plant response rating, Soybean (soybean; 125 g ai/ha, 13 to 15 days): 95; Soybean plant response rating (soybean; [14]): 100; Plant response rating (scale of 0 to 100 where 0 is no effect and 100 is complete control), Ryegrass, Italian (ryegrass, Italian [4]): 5; Ryegrass, Italian plant response rating (ryegrass, Italian [4]): 5; Plant response rating, Ryegrass, Italian (ryegrass, Italian [4]; [5]): 30; Plant response rating, Ryegrass, Italian (ryegrass, Italian [4]; [6]): 5"
